# Measurements published in US20210230179A1, “THIENO[2,3-B]PYRIDINE DERIVATIVES AS EPAC INHIBITORS AND THEIR PHARMACEUTICAL USES” (INSTITUT NATIONAL DE LA SANTE ET DE LA RECHERCHE MEDICALE …, priority 2018, published 2021).
# Legend:
# [1] = tested on: mice; conditions: single i.v. bolus 8 mg/kg 5 min before reperfusion; 45 min occlusion, 24 h reperfusion
# Procedure: Statistical significance was determined by two-way ANOVA followed by Bonferroni post-test or t-test. *p<0.01, **p<0.01, ***p<0.001, versus indicated values
# Mice were anesthetized with intraperitoneal ketamine (60 mg/kg) and xylazine (6 mg/kg), intubated and ventilated mechanically. Anesthesia was maintained throughout the chirurgical procedure with 1.5% isoflurane. Body temperature was maintained at 37° C. A left thoracotomy was performed in order to enable coronary artery occlusion with a 7-0 Prolene thread placed around the left coronary artery for 45 min, followed by 24 h of reperfusion. […] Myocardial ischemia was confirmed by the presence of regional cyanosis. Reperfusion was confirmed by visualization of a hyperemic response. At this point, the chest was closed in layers. 24 h after reperfusion, mice were anesthetized again, the coronary artery was reoccluded at the previous site, and the heart was excised after Evans blue perfusion. The area at risk and the infarct area were respectively determined by Evans blue and 2,3,5-triphenyltetrazolium chloride (TTC) staining. The area at risk was identified as the non-blue region and expressed as a percentage of the left ventricle weight. The infarcted area was identified as the TTC negative zone and expressed as a percentage of area at risk.
# [2] = target: T1, Epac1 (Homo sapiens, UniProt O95398); test: Rap1-GTP in HEK293 cells transfected with Epac1; type: cell-based; parameters: expressed in transfected cells; host or cells: HEK293; conditions: 20 μM, 30 min preincubation; 8-CPT-AM 10 μM, 10 min
# T1 sequence (O95398 1-923): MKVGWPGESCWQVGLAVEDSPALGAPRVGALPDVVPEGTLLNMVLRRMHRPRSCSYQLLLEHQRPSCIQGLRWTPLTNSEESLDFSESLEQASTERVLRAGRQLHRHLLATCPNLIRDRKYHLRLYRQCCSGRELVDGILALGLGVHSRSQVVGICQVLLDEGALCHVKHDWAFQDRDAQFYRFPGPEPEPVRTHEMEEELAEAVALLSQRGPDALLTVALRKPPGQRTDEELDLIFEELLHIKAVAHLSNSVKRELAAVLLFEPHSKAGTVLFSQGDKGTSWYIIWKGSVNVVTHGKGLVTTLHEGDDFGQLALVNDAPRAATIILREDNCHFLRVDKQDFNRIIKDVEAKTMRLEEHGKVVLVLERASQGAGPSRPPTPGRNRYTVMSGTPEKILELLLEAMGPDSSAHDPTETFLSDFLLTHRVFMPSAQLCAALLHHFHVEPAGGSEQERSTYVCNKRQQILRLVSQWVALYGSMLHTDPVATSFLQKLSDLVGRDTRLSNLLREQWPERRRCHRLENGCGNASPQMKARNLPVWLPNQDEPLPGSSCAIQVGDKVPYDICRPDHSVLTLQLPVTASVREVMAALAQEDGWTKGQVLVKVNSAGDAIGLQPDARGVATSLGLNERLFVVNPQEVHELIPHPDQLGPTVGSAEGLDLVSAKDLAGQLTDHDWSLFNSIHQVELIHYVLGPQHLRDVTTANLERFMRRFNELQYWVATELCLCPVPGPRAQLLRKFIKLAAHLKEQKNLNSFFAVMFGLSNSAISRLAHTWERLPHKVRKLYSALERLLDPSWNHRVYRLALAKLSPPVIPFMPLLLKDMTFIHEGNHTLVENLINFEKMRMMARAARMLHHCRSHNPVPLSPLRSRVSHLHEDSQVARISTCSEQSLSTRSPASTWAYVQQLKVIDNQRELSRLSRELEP
# Procedure: FIGS. 9-13. Amounts of Rap1-GTP (n=5 in each group, mean±S.E.M) were determined in HEK293 cells transfected with Epac1 (FIGS. 9-11), Epac2A (FIG. 12) or Epac2B (FIG. 13). Cells were preincubated or not with AM-001 (FIGS. 9, 12, and 13), AM-002 (FIG. 10) or AM-003 (FIG. 11) (20 μM, 30 min) and were then treated or not with 8-CPT-AM (10 μM for Epac1 activation and 20 μM for Epac2A activation) or S-220 (50 μM for Epac2B activation) for 10 min. ESI-05 was used as positive control of Epac2A inhibition. Representative immunoblots are shown. […], *[…], ***p<0.001, ****p<0.0001, versus indicated values, one way ANOVA, Bonferroni comparison test.
# Human Embryonic Kidney cells line (HEK293): HEK293 cells were maintained is in minimal essential medium with FBS (10%) and penicillin-streptomycin (1%). All media, sera, and antibiotics used in cell culture were purchased from Invitrogen.
# The human Epac1/Epac2 expression vector was a gift from Dr J. L. Bos. Cells were transfected using Lipofectamine 2000 (Invitrogen) according to the manufacturer's instructions. HEK293 cells were maintained in MEM with FBS (Foetal Bovine Serum; 10%) and penicillin-streptomycin (1%). All media, sera and antibiotics used in cell culture were purchased from Invitrogen (Cergy Pontoise, France). Transient transfection experiments were performed with Lipofectamine 2000 (Invitrogen Life Technologies) in the presence of various amounts of plasmid constructs according to the manufacturer's instructions.
# This cell line is commonly used for the evaluation of Epac pharmacological modulators on the cellular signaling of ectopically expressed Epac1 and Epac2 isoforms. […] Next, the inventors investigated the effect of 8-CPT-AM on the two Epac2 splice variants, Epac2A and Epac2B (FIGS. 12-13).
# [3] = tested on: type I PKA holoenzyme; test: type I PKA holoenzyme activation; type: biochemical; conditions: 30 μM, presence and absence of 10 μM cAMP
smiles,measurement,setting,value
"Nc1c(C(=O)Nc2ccc(F)cc2)sc2nc(-c3cccs3)cc(-c3ccccc3)c12 [AM-001, 3-amino-N-(4-fluorophenyl)-4-phenyl-6-(thiophen-2-yl)thieno[2,3-b]pyridine-2-carboxamide]",ratio of infarct size to area-at-risk,[1],36±3%
same,inhibition of Epac1-induced Rap1 activation,[2],prevented Epac1-induced Rap1 activation
same,effect on type I PKA holoenzyme activation,[3],did not influence
